From patent publication US6087121A, “Chemiluminescent detection of heme proteins in biological samples” (Mayo Foundation for Medical Education and Research, priority 1999, dated 2000) come the findings set out here.

Some results are limits rather than exact numbers.

For one assay, the target named is T1, Eosinophil Peroxidase (Homo sapiens, UniProt P11678).
T1 sequence (P11678 140-715): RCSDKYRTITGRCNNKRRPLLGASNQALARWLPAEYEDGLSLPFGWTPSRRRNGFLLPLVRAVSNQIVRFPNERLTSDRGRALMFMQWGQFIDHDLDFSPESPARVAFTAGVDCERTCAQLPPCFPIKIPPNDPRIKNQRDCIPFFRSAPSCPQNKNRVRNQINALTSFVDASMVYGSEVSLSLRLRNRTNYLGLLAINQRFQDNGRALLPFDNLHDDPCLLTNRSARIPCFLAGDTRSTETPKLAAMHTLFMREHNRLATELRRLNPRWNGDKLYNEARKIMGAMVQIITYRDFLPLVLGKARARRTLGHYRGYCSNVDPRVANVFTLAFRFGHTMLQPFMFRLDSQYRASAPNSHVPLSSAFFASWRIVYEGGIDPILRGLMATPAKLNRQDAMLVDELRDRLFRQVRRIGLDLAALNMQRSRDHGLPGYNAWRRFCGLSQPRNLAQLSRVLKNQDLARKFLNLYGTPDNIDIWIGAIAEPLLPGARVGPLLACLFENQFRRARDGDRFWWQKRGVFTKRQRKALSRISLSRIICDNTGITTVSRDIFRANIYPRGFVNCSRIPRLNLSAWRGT
As to the kind of experiment: Inhibition of peroxidase activities with PS-1 by methimazole: Eosinophil Peroxidase. Conditions: 50 μmol/L methimazole, enzyme 1 μg/mL. In kind it is biochemical. As for the experimental part: (§1) Urine samples were diluted 1:4 into distilled water to minimize inhibitory effects observed with hyperosmolal urines. Two μL of diluted urine were added to 12×75 mm polystyrene test tube containing 50 μL of the PS-1 solution. The tubes were incubated at 37° C. for 5 minutes. MPO activity was determined by chemiluminescence emission using a Turner TD-20e luminometer maintained at 37° C. Leukocyte counting was performed manually by using a hemacytometer chamber (Kova Glasstic slide, Hycor, Irvine, Calif.) on each urine sample to determine the number of cells/mL.
(§2) The reactivity of PS-1 with heme proteins was assessed to determine if this substrate had more restricted specificity. Materials and methods were according to the description above.
(§3) Several peroxidases were detected with PS-1 substrate including EPO, MPO, LPO, and TPO. Addition of 50 μmol/L methimazole, an inhibitor of EPO, reduces activities of EPO, TPO and LPO by >90%, while MPO was inhibited by less than about 50% (Table 6). The addition of methimazole to the PS-1 assay allows MPO activity to be detected selectively.

The target of the next assay is T2, Thyroid peroxidase (Homo sapiens, UniProt P07202).
T2 sequence (P07202 19-933): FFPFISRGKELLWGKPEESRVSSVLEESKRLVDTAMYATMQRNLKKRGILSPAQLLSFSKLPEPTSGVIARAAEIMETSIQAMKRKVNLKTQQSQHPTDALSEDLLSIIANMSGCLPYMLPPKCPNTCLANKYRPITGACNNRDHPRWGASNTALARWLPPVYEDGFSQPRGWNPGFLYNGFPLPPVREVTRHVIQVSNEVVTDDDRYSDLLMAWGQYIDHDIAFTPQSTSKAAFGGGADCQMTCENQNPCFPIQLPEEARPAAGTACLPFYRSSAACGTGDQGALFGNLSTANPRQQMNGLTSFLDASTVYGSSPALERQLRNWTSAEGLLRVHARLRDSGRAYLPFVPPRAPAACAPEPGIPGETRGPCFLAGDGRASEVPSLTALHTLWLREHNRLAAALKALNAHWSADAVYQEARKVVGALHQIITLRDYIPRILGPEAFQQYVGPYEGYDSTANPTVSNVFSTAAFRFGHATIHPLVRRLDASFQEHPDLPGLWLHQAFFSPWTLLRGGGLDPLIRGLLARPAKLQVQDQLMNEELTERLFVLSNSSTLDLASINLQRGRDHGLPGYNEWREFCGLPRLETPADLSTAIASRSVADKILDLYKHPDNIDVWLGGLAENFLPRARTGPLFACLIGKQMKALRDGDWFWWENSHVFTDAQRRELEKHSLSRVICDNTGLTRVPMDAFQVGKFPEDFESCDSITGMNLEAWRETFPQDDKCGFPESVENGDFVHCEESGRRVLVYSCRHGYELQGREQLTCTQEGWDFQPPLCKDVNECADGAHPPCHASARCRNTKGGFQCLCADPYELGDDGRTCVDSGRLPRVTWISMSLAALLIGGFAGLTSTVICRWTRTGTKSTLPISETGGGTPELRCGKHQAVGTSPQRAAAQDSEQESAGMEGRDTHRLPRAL
As to the kind of experiment: Inhibition of peroxidase activities with PS-1 by methimazole: Thyroid peroxidase. Conditions: 50 μmol/L methimazole, enzyme 1 μg/mL. In kind it is biochemical. As for the experimental part:
as §1, §2, §3

The target of a further assay is T3, Myeloperoxidase (Homo sapiens, UniProt P05164).
T3 sequence (P05164 49-745): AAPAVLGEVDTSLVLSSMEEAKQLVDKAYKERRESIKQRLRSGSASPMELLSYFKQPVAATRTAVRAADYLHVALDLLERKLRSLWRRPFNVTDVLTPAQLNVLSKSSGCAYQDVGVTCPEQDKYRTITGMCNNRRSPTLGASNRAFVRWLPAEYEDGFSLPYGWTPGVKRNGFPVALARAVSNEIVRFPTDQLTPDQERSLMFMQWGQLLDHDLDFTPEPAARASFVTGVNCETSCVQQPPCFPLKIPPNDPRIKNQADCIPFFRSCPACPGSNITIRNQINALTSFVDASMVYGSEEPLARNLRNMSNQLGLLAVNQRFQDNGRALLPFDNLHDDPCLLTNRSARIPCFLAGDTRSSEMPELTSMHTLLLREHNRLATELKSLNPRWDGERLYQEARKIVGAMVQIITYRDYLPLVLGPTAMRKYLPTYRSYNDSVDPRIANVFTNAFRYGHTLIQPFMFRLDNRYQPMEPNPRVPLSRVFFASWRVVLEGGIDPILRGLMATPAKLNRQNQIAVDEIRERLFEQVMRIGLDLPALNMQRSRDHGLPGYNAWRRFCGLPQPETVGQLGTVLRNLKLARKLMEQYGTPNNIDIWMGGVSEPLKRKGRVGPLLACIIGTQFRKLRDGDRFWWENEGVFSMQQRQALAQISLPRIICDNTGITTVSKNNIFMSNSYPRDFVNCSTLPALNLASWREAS
As to the kind of experiment: Inhibition of peroxidase activities with PS-1 by methimazole: Myeloperoxidase. Conditions: 50 μmol/L methimazole, enzyme 1 μg/mL. In kind it is biochemical. As for the experimental part: as §1, §2, §3

A further assay addresses Lactoperoxidase (Bos taurus, UniProt P80025). As to the kind of experiment: Inhibition of peroxidase activities with PS-1 by methimazole: Lactoperoxidase. In kind it is biochemical. Conditions: 50 μmol/L methimazole, enzyme 1 μg/mL. As for the experimental part:
as §1, §2, §3

In the next assay the target is T4, Myoglobin (Homo sapiens, UniProt P02144).
T4 sequence (P02144 1-154): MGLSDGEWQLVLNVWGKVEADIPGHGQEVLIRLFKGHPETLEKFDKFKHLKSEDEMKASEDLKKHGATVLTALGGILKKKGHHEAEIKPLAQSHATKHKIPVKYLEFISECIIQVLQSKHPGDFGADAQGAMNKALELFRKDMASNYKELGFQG
As to the kind of experiment: Inhibition of peroxidase activities with PS-1 by methimazole: Myoglobin. In kind it is biochemical. Conditions: 50 μmol/L methimazole, protein 1 μg/mL. As for the experimental part: (§4) Centricon ultrafiltration filters were obtained from Amicon (Daven, Mass.). Polystyrene tubes (5.0 mL volume, 75×12 mm) used for the assay were manufactured by Sarstedt (Arlington Heights, Ill.). The chemiluminescent substrate, 7-dimethylamino-naphthalene-1,2-dicarbonic acid-hydrazide (7-DNH) was purchased from Boehringer Mannheim (Indianapolis, Ind.). PS-1 acridan substrate (solution A and solution B) was obtained from Lumigen Inc. (Southfield, Mich.). Dimethyl sulfoxide, cetyltrimethyl-ammonium chloride (CTAC) as a 25% liquid and glycerol were obtained from Aldrich Chemical Company Inc. (Milwaukee, Wis.). Tween-20 and Sodium Chloride were purchased from Fisher Scientific (Fair Lawn, N.J.). […]
(§5) Urine samples were diluted 1:4 into distilled water to minimize inhibitory effects observed with hyperosmolal urines. […] MPO activity was determined by chemiluminescence emission using a Turner TD-20e luminometer maintained at 37° C. […]
(§6) The reactivity of PS-1 with heme proteins was assessed to determine if this substrate had more restricted specificity. […]

In another assay the target is Hemoglobin (Homo sapiens, UniProt P68871+P69905). As to the kind of experiment: Inhibition of peroxidase activities with PS-1 by methimazole: Hemoglobin. Conditions: 50 μmol/L methimazole, protein 1 μg/mL. In kind it is biochemical. As for the experimental part:
as §4, §5, §6

A further assay relates to Hb. As to the kind of experiment: Interference studies in Hb assay (7-DNH chemiluminescence). In kind it is biochemical, human. Conditions: level producing a signal equivalent to 3 RBC per high power field, fixed Hb concentration. As for the experimental part: Numerous potential interfering substances, which either enhance or quench the signal generated by cyclic hydrazides, were evaluated. The effects of these potentially interfering substances on light emission was investigated at varying concentrations of the interfering composition. Assays were performed using serial dilutions of the potential interfering compositions in ultrafiltered urine at a fixed concentration of Hb. Comparisons of chemiluminescence emission were made between a reference solution (Hb in ultrafiltered urine) without added interfering compositions and solutions with added interferant.
Generally, the value of 3 RBC per high power field is the normal cutoff point.
Bilirubin and uric acid were examined as a possible negative interfering compositions because of their chemical structure which may quench energy emitted.

The nature of assay [1]: Activity of hemoglobin and myoglobin (oxidation states of iron, standard curves) with 7-DNH. In kind it is biochemical. As for the experimental part: The effect of the oxidation state of the heme iron on chemiluminescence emission was evaluated. Equal concentrations of hemoglobin and myoglobin were used. Standard solutions of Hb and Mb at varying concentrations were assayed to evaluate their behavior in the reaction.
With the addition of dithionite to the lysing agent, all of the iron in hemoglobin is immediately converted to the ferrous oxidation which subsequently reacts with H2 O2 and the substrate to form product. OxyHb and oxyMb […] were made by reducing methemoglobin/metmyoglobin with sodium dithionite and then oxygenating each protein by subsequent passage through a Sephadex column. The oxidation of oxyHb/oxyMb to the ferry (Fe^+4) oxidation state was achieved by adding an excess of H2 O2 to the protein solutions.

The next assay concerns the target T5, MPO (Homo sapiens, UniProt P05164).
T5 sequence (P05164 49-745): T3 sequence (P05164 49-745)
As to the kind of experiment: Effects of potential interfering substances in WBC (MPO, PS-1) assay. In kind it is biochemical. As for the experimental part:
as §1
Several possible interfering substances were added to urine and tested for inhibitory effects. Several common medications were also tested for potential inhibitory effects. […] Hb at concentrations of >10 μg/mL and Mb at concentrations >2 μg/mL were detected by the PS-1 substrate as the chemiluminescence emission was above the normal urine background. Samples grossly populated with bacteria caused slight inhibition of the MPO activity. Urine samples may contain many epithelial cells, casts, crystals, and numerous artifacts but none of these appear to interfere with the chemiluminescence emission from MPO.

Chain of Hemoglobin (P69905 whole entry): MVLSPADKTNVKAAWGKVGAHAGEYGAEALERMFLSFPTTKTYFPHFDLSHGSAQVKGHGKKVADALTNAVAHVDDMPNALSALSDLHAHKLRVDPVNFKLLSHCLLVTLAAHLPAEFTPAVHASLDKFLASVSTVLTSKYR
Chain of Hemoglobin (P68871 whole entry): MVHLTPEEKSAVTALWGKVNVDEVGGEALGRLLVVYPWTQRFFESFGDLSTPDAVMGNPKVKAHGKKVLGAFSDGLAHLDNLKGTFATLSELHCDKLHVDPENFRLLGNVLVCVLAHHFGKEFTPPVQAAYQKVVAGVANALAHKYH

Usually inhibition stands for the percentage by which the read-out fell short of the control. High values mean a strong effect, low ones a weak effect. With `Cn1cc[nH]c1=S` [Methimazole, methimazole], the Chemiluminescence with methimazole amounted to 74 TLU on Eosinophil Peroxidase; 0.1 TLU on Thyroid peroxidase; 130 TLU at Myeloperoxidase; 0.9 TLU on Lactoperoxidase; 1.9 TLU at Myoglobin; 0.8 TLU on Hemoglobin. Besides, the inhibition at 50 µM on Eosinophil Peroxidase is more than 90%; against Thyroid peroxidase, more than 90%; against Myeloperoxidase, 58%; on Lactoperoxidase, more than 90%; on Myoglobin it was 39%; on Hemoglobin, 9%.

B1: Myoglobin: Human heart myoglobin obtained from Calbiochem (protein, UniProt P02144 2-154, looked up)
Myoglobin: GLSDGEWQLVLNVWGKVEADIPGHGQEVLIRLFKGHPETLEKFDKFKHLKSEDEMKASEDLKKHGATVLTALGGILKKKGHHEAEIKPLAQSHATKHKIPVKYLEFISECIIQVLQSKHPGDFGADAQGAMNKALELFRKDMASNYKELGFQG
Regarding B1, the “Level of Interference” value in the assay with Hb is more than 3.8 µg/mL; in the assay on Hb (listed as Mb), “above 4 μg/mL”; with Hb (listed as myoglobin) it was “approximately 4 μg/mL”. Besides, in [1] (alternative source of Mb, 7-DNH), the “reactivity of Mb relative to Hb (fold less reactive)” value was “about 30 -fold”. Also, the “activity compared to Hb” value in [1] (up to 4 μg/mL, FIG. 7) is recorded as “very little activity”. In the assay with MPO (Mb <2 μg/mL), the “interference with PS-1 assay” value is listed as “did not interfere”. In addition, the Interference in the assay with MPO (level giving signal equal to 5 WBC/high power field, highest tested: hemoglobin 250, myoglobin 200 μg/mL) was more than 2 µg/mL.
